The record followed here is patent publication US12643871B2, “Aryl formamide compound containing chiral sulfur oxide or salt thereof, preparation method, herbicidal composition and use thereof” (Qingdao Kingagroot Chemical Compound Co., Ltd., priority 2019, dated 2026).

Experiment in all cases: Weeding effect in post-emergence stage
Type in all cases: in vivo
Holding throughout (conditions): 250 g/ha; 2 leaf stage; 15 days after application; fresh weight control rate

The test system of one experiment is Setaria viridis. Summed up:
(§1)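 Activity graded 0 (<5%) to 5 (>85%) from fresh-weight control rate, averaged over three repeats, 15 days after a spray-tower application. Plants at 2-leaf stage (2 weeks post-sowing) received 15–500 g/ha of compound formulated in acetone, Tween 80 and methyl oleate synergist (1.5 L/ha).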

The next experiment concerns Echinochloa crusgali. Summed up: as §1
In the next experiment the test system is Amaranthus retroflexus. Summed up:
as §1

For a further experiment, the system named is Abutilon theophrasti. Summed up:
as §1

In another experiment the test system is Digitaria sanguinalis. In short, it runs like this: as §1

As to `COc1c(C(=O)Nc2nnc(C)o2)ccc(C(F)(F)F)c1[S+]([O-])COCc1ccccc1` (stereo not shown) [Compound 347], the “weeding effect in post-emergence stage, activity level (growth control rate), Setaria viridis” value (shortened to “weeding effect … Setaria viridis”) in the experiment on Setaria viridis was 5 (Level 5: growth control rate is above 85%). In the experiment with Echinochloa crusgali, the “weeding effect in post-emergence stage, activity level (growth control rate), Echinochloa crusgali” value (“weeding effect … Echinochloa crusgali” below) is reported as 5 (Level 5: growth control rate is above 85%). Further, the “weeding effect in post-emergence stage, activity level (growth control rate), Amaranthus retroflexus” value (shortened to “weeding effect … Amaranthus retroflexus”) with Amaranthus retroflexus was 5 (Level 5: growth control rate is above 85%). Moreover, the “weeding effect in post-emergence stage, activity level (growth control rate), Abutilon theophrasti” value (shortened to “weeding effect … Abutilon theophrasti”) in the experiment on Abutilon theophrasti was 5 (Level 5: growth control rate is above 85%). Moreover, the “weeding effect in post-emergence stage, activity level (growth control rate), Digitaria sanguinalis” value (“weeding effect … Digitaria sanguinalis” for short) in the experiment with Digitaria sanguinalis is reported as 5 (Level 5: growth control rate is above 85%).

For the compound `CCC[S@@+]([O-])c1c(C(F)(F)F)ccc(C(=O)Nc2nnco2)c1F` [Compound 357], the “weeding effect … Setaria viridis” value in the experiment on Setaria viridis is listed as 5 (Level 5: growth control rate is above 85%). Besides, the “weeding effect … Echinochloa crusgali” value in the experiment on Echinochloa crusgali was 5 (Level 5: growth control rate is above 85%). Besides, the “weeding effect … Amaranthus retroflexus” value in the experiment with Amaranthus retroflexus is listed as 5 (Level 5: growth control rate is above 85%). In the experiment on Abutilon theophrasti, the “weeding effect … Abutilon theophrasti” value is given as 5 (Level 5: growth control rate is above 85%). The “weeding effect … Digitaria sanguinalis” value in the experiment on Digitaria sanguinalis is listed as 5 (Level 5: growth control rate is above 85%).

With `CCC[S@@+]([O-])c1c(C(F)(F)F)ccc(C(=O)Nc2nnc(CC)o2)c1F` [Compound 358], the “weeding effect … Setaria viridis” value with Setaria viridis is 5 (Level 5: growth control rate is above 85%). The “weeding effect … Echinochloa crusgali” value in the experiment with Echinochloa crusgali was 5 (Level 5: growth control rate is above 85%). Further, the “weeding effect … Amaranthus retroflexus” value in the experiment with Amaranthus retroflexus is 5 (Level 5: growth control rate is above 85%). Moreover, the “weeding effect … Abutilon theophrasti” value in the experiment with Abutilon theophrasti is 5 (Level 5: growth control rate is above 85%). Also, in the experiment on Digitaria sanguinalis, the “weeding effect … Digitaria sanguinalis” value is 5 (Level 5: growth control rate is above 85%).

With `CCC[S@@+]([O-])c1c(C(F)(F)F)ccc(C(=O)Nc2nnc(C(C)C)o2)c1F` [Compound 359], the “weeding effect … Setaria viridis” value in the experiment with Setaria viridis is given as 5 (Level 5: growth control rate is above 85%). Besides, the “weeding effect … Echinochloa crusgali” value in the experiment on Echinochloa crusgali was 5 (Level 5: growth control rate is above 85%). In addition, the “weeding effect … Amaranthus retroflexus” value with Amaranthus retroflexus was 5 (Level 5: growth control rate is above 85%). Moreover, the “weeding effect … Abutilon theophrasti” value with Abutilon theophrasti was 5 (Level 5: growth control rate is above 85%). In addition, the “weeding effect … Digitaria sanguinalis” value in the experiment on Digitaria sanguinalis was 5 (Level 5: growth control rate is above 85%).

On to `CC[S@@+]([O-])c1c(C(F)(F)F)ccc(C(=O)Nc2nnco2)c1OC` [Compound 423], for which the “weeding effect … Setaria viridis” value in the experiment on Setaria viridis is 5 (Level 5: growth control rate is above 85%). Moreover, in the experiment on Echinochloa crusgali, the “weeding effect … Echinochloa crusgali” value is given as 5 (Level 5: growth control rate is above 85%). Moreover, in the experiment on Amaranthus retroflexus, the “weeding effect … Amaranthus retroflexus” value was 5 (Level 5: growth control rate is above 85%). Besides, in the experiment with Abutilon theophrasti, the “weeding effect … Abutilon theophrasti” value is 5 (Level 5: growth control rate is above 85%). The “weeding effect … Digitaria sanguinalis” value in the experiment on Digitaria sanguinalis is listed as 5 (Level 5: growth control rate is above 85%).

As to `CCc1nnc(NC(=O)c2ccc(C(F)(F)F)c([S@+]([O-])CC)c2OC)o1` [Compound 424], the “weeding effect … Setaria viridis” value in the experiment with Setaria viridis is 5 (Level 5: growth control rate is above 85%). Besides, in the experiment with Echinochloa crusgali, the “weeding effect … Echinochloa crusgali” value is 5 (Level 5: growth control rate is above 85%). Besides, the “weeding effect … Amaranthus retroflexus” value in the experiment with Amaranthus retroflexus is 5 (Level 5: growth control rate is above 85%). Further, the “weeding effect … Abutilon theophrasti” value in the experiment with Abutilon theophrasti was 5 (Level 5: growth control rate is above 85%). Further, the “weeding effect … Digitaria sanguinalis” value in the experiment on Digitaria sanguinalis is 5 (Level 5: growth control rate is above 85%).

`CC[S@@+]([O-])c1c(C(F)(F)F)ccc(C(=O)Nc2nnnn2C)c1OC` [Compound 445]: in the experiment with Setaria viridis, the “weeding effect … Setaria viridis” value is reported as 5 (Level 5: growth control rate is above 85%). For the same compound, the “weeding effect … Echinochloa crusgali” value with Echinochloa crusgali is reported as 5 (Level 5: growth control rate is above 85%). Further, the “weeding effect … Amaranthus retroflexus” value with Amaranthus retroflexus is 5 (Level 5: growth control rate is above 85%). In addition, the “weeding effect … Abutilon theophrasti” value in the experiment on Abutilon theophrasti is 5 (Level 5: growth control rate is above 85%). Besides, the “weeding effect … Digitaria sanguinalis” value in the experiment with Digitaria sanguinalis is recorded as 5 (Level 5: growth control rate is above 85%).

`CCn1nnnc1NC(=O)c1ccc(C(F)(F)F)c([S@+]([O-])CC)c1OC` [Compound 446]: the “weeding effect … Setaria viridis” value with Setaria viridis was 5 (Level 5: growth control rate is above 85%). Besides, in the experiment on Echinochloa crusgali, the “weeding effect … Echinochloa crusgali” value is 5 (Level 5: growth control rate is above 85%). Besides, the “weeding effect … Amaranthus retroflexus” value with Amaranthus retroflexus was 5 (Level 5: growth control rate is above 85%). In addition, in the experiment with Abutilon theophrasti, the “weeding effect … Abutilon theophrasti” value is listed as 5 (Level 5: growth control rate is above 85%). Moreover, in the experiment with Digitaria sanguinalis, the “weeding effect … Digitaria sanguinalis” value is reported as 5 (Level 5: growth control rate is above 85%).

Regarding `CCCn1nnnc1NC(=O)c1ccc(C(F)(F)F)c([S@+]([O-])CC)c1OC` [Compound 447], the “weeding effect … Setaria viridis” value with Setaria viridis is 5 (Level 5: growth control rate is above 85%). In addition, in the experiment with Echinochloa crusgali, the “weeding effect … Echinochloa crusgali” value was 5 (Level 5: growth control rate is above 85%). The “weeding effect … Amaranthus retroflexus” value in the experiment with Amaranthus retroflexus is recorded as 5 (Level 5: growth control rate is above 85%). The “weeding effect … Abutilon theophrasti” value in the experiment with Abutilon theophrasti is on record as 5 (Level 5: growth control rate is above 85%). Moreover, the “weeding effect … Digitaria sanguinalis” value in the experiment with Digitaria sanguinalis was 5 (Level 5: growth control rate is above 85%).

On to `CCC[S@@+]([O-])c1c(C(F)(F)F)ccc(C(=O)Nc2nnc(C)o2)c1OC` [Compound 531], for which, in the experiment on Setaria viridis, the “weeding effect … Setaria viridis” value is given as 5 (Level 5: growth control rate is above 85%). Also, the “weeding effect … Echinochloa crusgali” value in the experiment with Echinochloa crusgali is on record as 5 (Level 5: growth control rate is above 85%). For the same compound, in the experiment on Amaranthus retroflexus, the “weeding effect … Amaranthus retroflexus” value is on record as 5 (Level 5: growth control rate is above 85%). Also, the “weeding effect … Abutilon theophrasti” value with Abutilon theophrasti is 5 (Level 5: growth control rate is above 85%). In the experiment on Digitaria sanguinalis, the “weeding effect … Digitaria sanguinalis” value is reported as 5 (Level 5: growth control rate is above 85%).

For the compound `CCC[S@@+]([O-])c1c(C(F)(F)F)ccc(C(=O)Nc2nnc(C)o2)c1OCC` [Compound 532], the “weeding effect … Setaria viridis” value in the experiment with Setaria viridis was 5 (Level 5: growth control rate is above 85%). For the same compound, the “weeding effect … Echinochloa crusgali” value in the experiment with Echinochloa crusgali was 5 (Level 5: growth control rate is above 85%). The “weeding effect … Amaranthus retroflexus” value with Amaranthus retroflexus was 5 (Level 5: growth control rate is above 85%). The “weeding effect … Abutilon theophrasti” value with Abutilon theophrasti is listed as 5 (Level 5: growth control rate is above 85%). In addition, the “weeding effect … Digitaria sanguinalis” value in the experiment with Digitaria sanguinalis is reported as 5 (Level 5: growth control rate is above 85%).
